Data published in ChEMBL document CHEMBL1154005 (J Med Chem, 2009).
Activity calls are given as the source filed them.

Assays:
[1] = target: T1, Cytochrome P450 2C8 (Homo sapiens, UniProt P10632); experiment: Inhibition of CYP2C8 in human liver microsomes using montelukast substrate; type: ADME, Microsome
T1 sequence (P10632 whole entry): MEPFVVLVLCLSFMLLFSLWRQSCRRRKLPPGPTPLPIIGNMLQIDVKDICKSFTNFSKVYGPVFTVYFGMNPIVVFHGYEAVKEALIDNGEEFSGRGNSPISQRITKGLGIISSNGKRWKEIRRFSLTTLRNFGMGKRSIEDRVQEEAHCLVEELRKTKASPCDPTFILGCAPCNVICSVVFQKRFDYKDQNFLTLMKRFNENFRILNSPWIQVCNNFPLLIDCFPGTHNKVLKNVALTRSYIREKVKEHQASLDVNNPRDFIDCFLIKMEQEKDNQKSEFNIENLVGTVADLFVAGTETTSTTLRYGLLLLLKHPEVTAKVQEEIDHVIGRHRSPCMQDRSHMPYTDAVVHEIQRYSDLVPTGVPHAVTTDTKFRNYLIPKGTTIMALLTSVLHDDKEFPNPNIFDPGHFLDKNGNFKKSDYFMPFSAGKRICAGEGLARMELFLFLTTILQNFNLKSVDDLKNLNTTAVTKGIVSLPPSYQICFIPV

[2] = target: Cytochrome P450 2C9 (Homo sapiens, UniProt P11712); experiment: Inhibition of CYP2C9 in human liver microsomes using diclofenac substrate; type: ADME, Microsome
Cytochrome P450 2C9, sequence (P11712 whole entry): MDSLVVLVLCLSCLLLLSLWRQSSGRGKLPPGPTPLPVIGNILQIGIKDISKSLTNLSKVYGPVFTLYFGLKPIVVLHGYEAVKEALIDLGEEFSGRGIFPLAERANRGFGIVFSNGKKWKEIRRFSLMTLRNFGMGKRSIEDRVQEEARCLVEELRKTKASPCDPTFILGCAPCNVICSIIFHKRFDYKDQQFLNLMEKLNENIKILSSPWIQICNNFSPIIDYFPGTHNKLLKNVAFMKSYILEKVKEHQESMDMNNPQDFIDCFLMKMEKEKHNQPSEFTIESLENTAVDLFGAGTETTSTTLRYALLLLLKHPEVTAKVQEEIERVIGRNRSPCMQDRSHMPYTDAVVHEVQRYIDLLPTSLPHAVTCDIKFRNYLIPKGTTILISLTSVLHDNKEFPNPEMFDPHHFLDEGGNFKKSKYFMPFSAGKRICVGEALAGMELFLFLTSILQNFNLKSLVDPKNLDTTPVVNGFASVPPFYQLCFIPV

[3] = test system: Adipocyte; experiment: Inhibition of lipolysis in IBMX-stimulated human adipocytes assessed as glycerol release after 5 hrs; type: functional, cell-based
[4] = Oral bioavailability in C57BL/6 mouse at 2 mg/kg; type: ADME, organism-based; conditions: in vivo
[5] = Plasma clearance in C57BL/6 mouse at 1 mg/kg, iv or 2 mg/kg, po; type: ADME, organism-based
[6] = Volume of distribution at steady state in C57BL/6 mouse at 1 mg/kg, iv or 2 mg/kg, po; type: ADME, organism-based; conditions: in vivo, read-out: Vdss
[7] = Cmax in C57BL/6 mouse at 2 mg/kg, po; type: ADME, organism-based; design: dose 2 mg/kg, route oral; conditions: in vivo
[8] = Half life in C57BL/6 mouse at 1 mg/kg, iv or 2 mg/kg, po; type: ADME, organism-based; conditions: in vivo
[9] = test system: Rattus norvegicus; experiment: Reduction in free fatty acid level in 18 hrs fasted po dosed Sprague-Dawley rat; type: functional, organism-based
[10] = test system: Rattus norvegicus; experiment: Reduction in free fatty acid level in 18 hrs fasted Sprague-Dawley rat at 100 mg/kg, po; type: functional, organism-based; design: dose 100 mg/kg
[11] = test system: Rattus norvegicus; experiment: Toxicity in Sprague-Dawley rat assessed as induction of intense flushing by measuring blood perfusion change by Doppler flometry at 100 mg/kg, sc; type: organism-based; design: dose 100 mg/kg, route subcutaneous; conditions: in vivo
[12] = test system: Rattus norvegicus; experiment: Plasma concentration in Sprague-Dawley rat at 100 mg/kg, sc; type: ADME, organism-based; design: dose 100 mg/kg, route subcutaneous; conditions: in vivo
[13] = Therapeutic index, ratio of plasma concentration at threshold dose for vasodilation to IC50 for free fatty acid reduction in Sprague-Dawley rat; type: cell-free; conditions: read-out: TI
[14] = test system: Rattus norvegicus; experiment: Toxicity in Sprague-Dawley rat assessed as plasma concentration at threshold dose for vasodilation at 100 mg/kg, sc; type: organism-based; design: dose 100 mg/kg, route subcutaneous; conditions: in vivo, read-out: Activity
[15] = target: Hydroxycarboxylic acid receptor 2 (Rattus norvegicus, UniProt Q80Z39); experiment: Agonist activity at rat GPR109A expressed by [35S]GTPgammaS binding assay; type: functional
Hydroxycarboxylic acid receptor 2, sequence (Q80Z39 whole entry): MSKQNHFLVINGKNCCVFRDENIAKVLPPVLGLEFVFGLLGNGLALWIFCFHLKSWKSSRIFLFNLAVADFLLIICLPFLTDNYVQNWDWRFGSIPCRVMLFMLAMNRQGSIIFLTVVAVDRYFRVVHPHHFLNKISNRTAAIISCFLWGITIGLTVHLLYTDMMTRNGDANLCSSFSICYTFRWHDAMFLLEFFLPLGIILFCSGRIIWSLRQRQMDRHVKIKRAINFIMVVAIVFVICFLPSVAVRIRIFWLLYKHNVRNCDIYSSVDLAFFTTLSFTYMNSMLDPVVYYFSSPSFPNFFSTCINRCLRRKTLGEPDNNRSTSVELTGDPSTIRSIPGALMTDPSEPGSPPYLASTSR

[16] = test system: Rattus norvegicus; experiment: Plasma concentration in Sprague-Dawley rat at 1 mg/kg, sc; conditions: read-out: Cp, in vivo
[17] = test system: Rattus norvegicus; experiment: Toxicity in Sprague-Dawley rat assessed as plasma concentration at threshold dose for vasodilation at 1 mg/kg, sc; conditions: read-out: Activity, in vivo

Row | SMILES | IC50 [1] [µM] | IC50 [2] [µM] | IC50 [3] [µM] | bioavailability [4] [%] | clearance [5] [mL/min/kg] | Vd [6] [L/kg] | Cmax [7] [nM] | half-life [8] [h] | further results
1 | O=C(CCc1noc2c1Cc1cc(O)ccc1-2)Nc1ccccc1C(=O)O | 20 | 8.5 | – | – | – | – | – | – | –
2 | O=C(CCc1cn2c(n1)sc1cc(O)ccc12)NC1=C(C(=O)O)CCC1 | – | 12 | – | – | – | – | – | – | –
3 | Cn1nc(CCC(=O)Nc2ccccc2C(=O)O)c2c1-c1ccc(O)cc1CC2 | – | 17 | – | – | – | – | – | – | –
4 | O=C(CCc1nnn2c1ccc1cc(O)ccc12)Nc1ccccc1C(=O)O | – | 1.5 | 0.02 | 6 | 7 | 0.95 | 170 | 1.7 | –
5 | O=C(CCc1noc2c1CCc1cc(O)ccc1-2)NC1=C(C(=O)O)CCC1 | 47 | 47 | – | 7.5 | 4.1 | 0.2 | 1830 | 1.9 | –
6 | O=C(CCc1cn2c(n1)sc1ccccc12)Nc1ccccc1C(=O)O | – | 4.4 | – | – | – | – | – | – | –
7 | O=C(CCc1[nH]nc2c1CCc1cc(O)ccc1-2)Nc1ccccc1C(=O)O | 23 | 26 | 0.28 | 1.4 | 2.4 | 0.44 | 73 | 2.1 | –
8 | O=C(CCc1cn2c(n1)sc1cc(O)ccc12)Nc1ccccc1C(=O)O | – | – | 0.2 | – | – | – | – | – | –
9 | Cn1c(=O)c2cc(O)ccc2c2ccc(CCC(=O)Nc3ccccc3C(=O)O)cc21 | – | 4.7 | – | 10 | 1.4 | 0.26 | 1260 | 2.3 | –
10 | O=C(CCc1noc2c1ccc1cc(O)ccc12)Nc1ccccc1C(=O)O | – | 0.99 | 0.15 | – | – | – | – | – | –
11 | O=C(CCc1cnn2c1ccc1cc(O)ccc12)NC1=C(C(=O)O)CCCC1 | – | 19 | 0.06 | – | – | – | – | – | –
12 | O=C(CCc1cnn2c1CCc1cc(O)ccc1-2)Nc1ccccc1C(=O)O | 11 | 18 | 0.11 | 17 | 12 | 1.8 | 350 | 2.9 | IC50 [9]: 60 µM; Activity [10]: Active; Activity [11]: Not Active; concentration [12]: 500000 nM; selectivity ratio [13]: 8; concentration [14]: 500000 nM; EC50 [15]: 2.7 µM
13 | O=C(CCc1noc2c1CCc1cc(O)ccc1-2)NC1=C(C(=O)O)CCCC1 | 44 | 11 | – | – | – | – | – | – | –
14 | O=C(CCc1[nH]nc2c1ccc1cc(O)ccc12)Nc1ccccc1C(=O)O | 5.8 | 9.2 | 0.06 | – | – | – | – | – | –
15 | O=C(CCc1cn2c(n1)sc1cc(O)ccc12)NC1=C(C(=O)O)CCCC1 | – | 12 | 2.6 | 25 | 0.9 | 0.32 | 3800 | 4.4 | –
16 | O=C(CCc1ccc2c(ccc3[nH]ncc32)c1)Nc1ccccc1C(=O)O | – | < 0.14 | – | 24 | 0.6 | 0.19 | 3900 | 3.5 | –
17 | O=C(CCc1noc2c1CCc1cc(O)ccc1-2)Nc1ccccc1C(=O)O | 5.9 | 2.2 | – | 8.2 | 9.7 | 1.1 | 620 | 1.8 | –
18 | O=C(CCc1noc2c1ccc1cc(O)ccc12)NC1=C(C(=O)O)CCCC1 | – | 12 | – | – | – | – | – | – | –
19 | O=C(O)c1cccnc1 [NIACIN] | – | – | 0.07 | – | – | – | – | – | IC50 [9]: 5 µM; concentration [16]: 7600 nM; concentration [17]: 7600 nM
20 | O=C(CCc1noc2c1ccc1c(Cl)c(O)ccc12)NC1=C(C(=O)O)CCCC1 | – | 1.5 | – | – | – | – | – | – | –
21 | O=C(CCc1noc2c1ccc1c(F)c(O)ccc12)NC1=C(C(=O)O)CCCC1 | – | 2 | – | – | – | – | – | – | –
